# Values of other authors, collected in patent US20240350678A1, “SYSTEMS AND METHODS FOR GENERATION OF HYPERPOLARIZED MATERIALS” (NVISION IMAGING TECHNOLOGIES GMBH, priority 2021, published 2024).
# Read-outs that look alike come from different tables or passages of the source.
smiles,measurement,setting,value
CC(=O)O [acetic acid],maximal mole fraction of acetic acid in n-heptane,at 14.8° C.,0.935
same,maximal mole fraction of acetic acid in n-heptane,at −29.2° C.,0.02
